Test results as given in patent publication US20240024488A1, “COMPOUNDS AND USES THEREOF” (Foghorn Therapeutics Inc., priority 2020, published 2024).

Key:
HiBit-BRM fusion protein = biological target: T1, HiBit-BRM fusion protein (Homo sapiens, UniProt P51531); experiment: HiBiT-BRM cell-based degradation assay (Nano-Glo HiBiT Lytic Detection, 24 h); settings: HeLa cell line expressing HiBiT-BRM
T1 construct: expressed in transfected cells
Method in brief: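 Luminescence from reconstituted NanoBiT luciferase in lysed HeLa HiBiT-BRM cells served as the measure of remaining BRM after 24 h treatment. Compounds were tested from 30 μM final downward in 3-fold steps. DMSO and 2 μM of a standard BRM/BRG1 degrader defined the scale limits.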

[1] = biological target: T2, HiBit-BRG1 fusion protein (Homo sapiens, UniProt P51532); experiment: HiBiT-BRG1 cell-based degradation assay (Nano-Glo HiBiT Lytic Detection, 24 h); settings: HeLa cell line expressing HiBit-BRG1 and LgBit
T2 construct: expressed in transfected cells
Method in brief: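 Percent degradation derived from lytic HiBiT signal, normalized to DMSO-treated cells and to cells given 2 μM of a known BRM/BRG1 degrader. The HeLa line stably expressed HiBit-BRG1 and LgBit; treatment lasted 24 h at 5000 cells per well.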

T2 sequence (P51532 whole entry, the tested form may be a part): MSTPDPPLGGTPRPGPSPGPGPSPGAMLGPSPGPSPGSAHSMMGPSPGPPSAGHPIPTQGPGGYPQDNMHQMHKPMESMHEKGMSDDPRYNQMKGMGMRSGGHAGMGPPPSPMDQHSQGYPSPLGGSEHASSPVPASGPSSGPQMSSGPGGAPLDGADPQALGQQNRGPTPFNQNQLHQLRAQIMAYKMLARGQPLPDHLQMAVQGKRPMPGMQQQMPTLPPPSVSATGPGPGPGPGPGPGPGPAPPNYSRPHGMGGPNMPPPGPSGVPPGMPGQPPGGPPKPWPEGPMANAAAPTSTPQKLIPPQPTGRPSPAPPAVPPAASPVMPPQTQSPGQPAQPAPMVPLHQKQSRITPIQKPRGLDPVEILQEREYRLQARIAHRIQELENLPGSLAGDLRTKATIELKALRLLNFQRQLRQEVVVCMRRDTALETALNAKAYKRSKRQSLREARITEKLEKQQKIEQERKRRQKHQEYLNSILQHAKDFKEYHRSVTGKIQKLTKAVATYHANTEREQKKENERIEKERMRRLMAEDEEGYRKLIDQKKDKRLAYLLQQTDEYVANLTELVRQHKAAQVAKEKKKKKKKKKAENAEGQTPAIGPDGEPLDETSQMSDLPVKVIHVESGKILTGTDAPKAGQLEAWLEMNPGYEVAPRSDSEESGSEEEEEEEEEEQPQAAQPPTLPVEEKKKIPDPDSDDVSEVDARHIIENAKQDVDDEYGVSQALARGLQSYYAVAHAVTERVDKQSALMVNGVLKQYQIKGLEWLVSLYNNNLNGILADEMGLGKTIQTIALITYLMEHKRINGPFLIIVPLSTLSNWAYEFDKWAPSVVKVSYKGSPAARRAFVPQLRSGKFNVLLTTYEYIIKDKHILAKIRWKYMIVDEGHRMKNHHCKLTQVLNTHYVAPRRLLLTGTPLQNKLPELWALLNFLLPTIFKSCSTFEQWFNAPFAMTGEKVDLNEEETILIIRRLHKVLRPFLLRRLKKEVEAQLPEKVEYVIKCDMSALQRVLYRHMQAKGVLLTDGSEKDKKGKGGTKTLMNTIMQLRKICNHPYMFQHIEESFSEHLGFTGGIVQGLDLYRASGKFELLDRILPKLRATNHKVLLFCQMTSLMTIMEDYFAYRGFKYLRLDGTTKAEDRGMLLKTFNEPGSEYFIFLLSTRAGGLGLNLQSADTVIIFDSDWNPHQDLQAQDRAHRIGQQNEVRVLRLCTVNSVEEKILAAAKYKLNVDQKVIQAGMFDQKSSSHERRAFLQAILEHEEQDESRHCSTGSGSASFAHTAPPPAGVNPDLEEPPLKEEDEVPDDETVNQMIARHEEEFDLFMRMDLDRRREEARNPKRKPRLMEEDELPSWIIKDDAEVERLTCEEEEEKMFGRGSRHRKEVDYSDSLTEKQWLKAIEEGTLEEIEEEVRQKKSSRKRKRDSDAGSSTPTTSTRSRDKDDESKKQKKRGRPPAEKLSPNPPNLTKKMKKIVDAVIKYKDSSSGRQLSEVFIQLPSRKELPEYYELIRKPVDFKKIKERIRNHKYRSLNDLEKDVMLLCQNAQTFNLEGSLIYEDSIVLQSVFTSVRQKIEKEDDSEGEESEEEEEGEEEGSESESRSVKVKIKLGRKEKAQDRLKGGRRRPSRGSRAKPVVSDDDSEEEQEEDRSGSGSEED
T1 sequence (P51531 whole entry, the tested form may be a part): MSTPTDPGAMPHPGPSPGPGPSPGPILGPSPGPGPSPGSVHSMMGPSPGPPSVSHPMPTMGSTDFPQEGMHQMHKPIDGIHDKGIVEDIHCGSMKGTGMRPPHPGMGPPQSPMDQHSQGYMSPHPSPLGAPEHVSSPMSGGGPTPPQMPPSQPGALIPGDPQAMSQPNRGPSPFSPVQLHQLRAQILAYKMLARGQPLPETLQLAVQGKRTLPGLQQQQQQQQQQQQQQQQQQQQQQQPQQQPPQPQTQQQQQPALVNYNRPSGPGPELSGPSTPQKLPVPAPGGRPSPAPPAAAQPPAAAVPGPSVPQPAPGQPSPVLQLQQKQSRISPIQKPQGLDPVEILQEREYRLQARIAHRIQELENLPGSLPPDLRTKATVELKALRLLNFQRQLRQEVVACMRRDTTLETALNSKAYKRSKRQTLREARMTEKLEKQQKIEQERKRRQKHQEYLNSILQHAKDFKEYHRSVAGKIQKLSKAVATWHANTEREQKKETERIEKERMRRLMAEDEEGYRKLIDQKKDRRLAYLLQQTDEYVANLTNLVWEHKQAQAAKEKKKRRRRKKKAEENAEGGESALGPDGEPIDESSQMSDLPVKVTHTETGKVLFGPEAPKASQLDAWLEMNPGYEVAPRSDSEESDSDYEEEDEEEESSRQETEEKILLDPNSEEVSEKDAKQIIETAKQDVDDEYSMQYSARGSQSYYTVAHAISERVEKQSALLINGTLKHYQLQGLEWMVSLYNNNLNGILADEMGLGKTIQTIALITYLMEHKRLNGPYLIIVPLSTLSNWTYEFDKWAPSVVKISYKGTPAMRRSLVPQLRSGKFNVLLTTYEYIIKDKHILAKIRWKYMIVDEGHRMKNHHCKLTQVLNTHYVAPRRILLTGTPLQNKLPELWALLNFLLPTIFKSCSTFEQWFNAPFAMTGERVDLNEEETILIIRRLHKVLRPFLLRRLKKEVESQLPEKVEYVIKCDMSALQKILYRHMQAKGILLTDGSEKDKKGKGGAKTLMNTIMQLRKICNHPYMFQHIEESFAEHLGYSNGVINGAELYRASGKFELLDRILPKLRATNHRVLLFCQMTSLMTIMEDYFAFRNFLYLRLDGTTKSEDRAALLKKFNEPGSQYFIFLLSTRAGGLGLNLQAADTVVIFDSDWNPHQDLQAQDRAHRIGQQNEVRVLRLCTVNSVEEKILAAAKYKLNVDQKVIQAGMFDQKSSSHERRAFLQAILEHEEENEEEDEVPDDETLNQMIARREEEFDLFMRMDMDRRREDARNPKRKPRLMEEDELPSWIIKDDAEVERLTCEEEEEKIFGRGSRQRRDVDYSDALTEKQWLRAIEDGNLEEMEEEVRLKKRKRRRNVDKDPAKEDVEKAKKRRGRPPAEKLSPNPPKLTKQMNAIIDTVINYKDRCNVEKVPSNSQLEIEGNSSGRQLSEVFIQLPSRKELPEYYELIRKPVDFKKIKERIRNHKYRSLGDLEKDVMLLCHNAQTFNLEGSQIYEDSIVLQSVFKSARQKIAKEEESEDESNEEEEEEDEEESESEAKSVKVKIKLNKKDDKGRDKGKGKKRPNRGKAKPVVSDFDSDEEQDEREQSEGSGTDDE

In the case of `Cc1ncsc1-c1ccc([C@H](C)NC(=O)[C@@H]2C[C@@H](O)CN2C(=O)[C@H](c2cc([C@H]3CC[C@H](c4cnc(N5CCC(c6c[nH]c7nnc(-c8ccccc8O)cc67)CC5)nc4)CC3)no2)C(C)C)cc1` [Compound 310, (2S,4R)-4-hydroxy-N-[(1S)-1-[4-(4-methyl-1,3-thiazol-5-yl)phenyl]ethyl]-1-[(2S)-3-methyl-2-{3-[(1r,4r)-4-(2-{4-[3-(2-hydroxyphenyl)-7H-pyrrolo[2,3-c]pyridazin-5-yl]piperidin-1-yl}pyrimidin-5-yl)cyclohexyl]-1,2-oxazol-5-yl}butanoyl]pyrrolidine-2-carboxamide], the “BRM HiBit Degradation Maximum (%)” value (HiBit-BRM fusion protein) is reported as “A (“A” indicates maximum degradation ≥ 75%)”, the DC50 (HiBit-BRM fusion protein; read-out: BRM HiBit Degradation IC50) is reported as greater than 10 nM and the Dmax ([1]; read-out: BRG1 HiBit Degradation Maximum (%)) is reported as greater than 50%. It also gave a DC50 ([1]; read-out: BRMG1 HiBit Degradation IC50) greater than 100 nM.
